Results on ten compounds are retold here after ChEMBL document CHEMBL1201862, “PubChem BioAssay data set” (2004).

Test systems include HCT-116; HCT-15; HOP-62; HOP-92; K562; LOX IMVI; M14; MOLT-4; Malme-3M; NCI-H460; OVCAR-3; OVCAR-5; RPMI-8226; RXF 393; SK-MEL-2; SK-OV-3; SN12C; SNB-19; SNB-75; U-251.
Common to all, as to experiment: inhibition of tumour cell growth, NCI panel, 48 h

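Values below derive from 48-hour exposures of cells grown in 96-well plates, with endpoints linearly interpolated between the two concentrations bracketing the appropriate inhibition level. Here, GI50 denotes the concentration required for 50% inhibition of growth.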 Activity calls are given as the source filed them. Cut-off read from the data, not from the text of the source: active = GI50 up to about 1.1 µM and inactive = higher.

In the case of `C(=N\N=C1NCCCN1)/c1ccc2ccccc2c1`, the GI50 with HCT-116 is 10.4 µM (inactive); with HCT-15 it was 13.7 µM; in the test with HOP-62 it was 12.1 µM (inactive); with HOP-92 it was 10.3 µM (inactive); with K562, 3.48 µM (inactive); in the test with LOX IMVI, 9.14 µM (inactive). For the same compound, the GI50 is 7.98 µM (inactive) in the test on M14; 1.95 µM (inactive) in the test on MOLT-4; 18.2 µM (inactive) with Malme-3M; 4.98 µM (inactive) with NCI-H460; 14.7 µM (inactive) in the test with OVCAR-3; 8.69 µM (inactive) in the test with OVCAR-5. Moreover, the GI50 in the test on RPMI-8226 is 4.7 µM (inactive); in the test with RXF 393, 15.5 µM (inactive); in the test with SK-MEL-2, 13.7 µM (inactive); in the test on SK-OV-3, 11.2 µM (inactive); with SN12C, 12.4 µM (inactive); in the test on SNB-19 it was 14.7 µM (inactive). Further, the GI50 in the test on SNB-75 was 3.97 µM (inactive); in the test on U-251, 6.53 µM (inactive).

In the case of `O=C(O)CCC(C(=O)O)N1C(=O)C2C3CCC(C3)C2C1=O` (stereo not given), the GI50 in the test on HCT-116 is > 100 µM (inactive); in the test on HCT-15 it was more than 100 µM; with HOP-62, > 100 µM (inactive); in the test with HOP-92, > 100 µM (inactive); in the test with K562, > 100 µM (inactive); in the test on LOX IMVI it was > 100 µM (inactive). Further, the GI50 in the test with M14, with MOLT-4, in the test on Malme-3M, with NCI-H460, in the test with OVCAR-3 and in the test with OVCAR-5 was > 100 µM (inactive) in each case. Further, the GI50 with RPMI-8226, with RXF 393, in the test with SK-MEL-2, with SK-OV-3, in the test with SN12C and in the test on SNB-19 was > 100 µM (inactive) throughout. For the same compound, the GI50 with SNB-75 and in the test with U-251 was > 100 µM (inactive) each time.

On to `CCCC/C=C/C/C=C/CCCCCCCCC(=O)OCC1CCCN2CCCCC12` (stereo not given), for which the GI50 is > 100 µM (inactive) in the test on HCT-116; more than 100 µM in the test with HCT-15; > 100 µM (inactive) in the test with HOP-62; 31.7 µM (inactive) with HOP-92; > 100 µM (inactive) in the test with K562; 76.9 µM (inactive) in the test with LOX IMVI. Further, the GI50 with M14 was > 100 µM (inactive); in the test on MOLT-4, > 100 µM (inactive); in the test on Malme-3M, 87.5 µM (inactive); in the test with NCI-H460, > 100 µM (inactive); with OVCAR-3 it was > 100 µM (inactive); with OVCAR-5, > 100 µM (inactive). Besides, the GI50 in the test with RPMI-8226, in the test on RXF 393, in the test with SK-MEL-2, with SK-OV-3, in the test on SN12C and in the test on SNB-19 was > 100 µM (inactive) each time. Further, the GI50 with SNB-75 and with U-251 was > 100 µM (inactive) each time.

As for `Cc1ccc(NC(=O)CC2SC(Nc3ccc(Cl)cc3)=NC2=O)cc1C` (stereo not given), the GI50 with HCT-116 is 18.1 µM (inactive); in the test with HCT-15, 15.2 µM; in the test on HOP-62, > 100 µM (inactive); in the test with HOP-92 it was 14.4 µM (inactive); in the test on K562, 3.75 µM (inactive); with LOX IMVI, 19.4 µM (inactive). For the same compound, the GI50 with M14 is 16.9 µM (inactive); in the test on MOLT-4 it was 2.38 µM (inactive); in the test with Malme-3M, 18.5 µM (inactive); in the test with NCI-H460, 13.5 µM (inactive); in the test with OVCAR-3, 18.9 µM (inactive); with OVCAR-5 it was 19 µM (inactive). For the same compound, the GI50 in the test with RPMI-8226 is 6.47 µM (inactive); in the test with RXF 393, 17.1 µM (inactive); in the test on SK-MEL-2, 12.7 µM (inactive); in the test on SK-OV-3 it was > 49 µM (inactive); in the test with SN12C it was 17.9 µM (inactive); in the test on SNB-19 it was > 78.3 µM (inactive). Also, the GI50 with SNB-75 is 17.7 µM (inactive); in the test with U-251, 18.5 µM (inactive).

As for `N#CSc1[nH]cnc1C(N)=O`, the GI50 in the test with HCT-116 was 60 µM (inactive); in the test on HCT-15, more than 100 µM; in the test on HOP-62, > 100 µM (inactive); in the test on HOP-92, > 100 µM (inactive); in the test with K562 it was 20 µM (inactive); with LOX IMVI it was 41.3 µM (inactive). Further, the GI50 in the test with M14 is 62.7 µM (inactive); with MOLT-4, > 10 µM (inactive); in the test on Malme-3M, 17.4 µM (inactive); with NCI-H460, > 100 µM (inactive); with OVCAR-3, > 100 µM (inactive); in the test on OVCAR-5 it was > 100 µM (inactive). Besides, the GI50 was 4.22 µM (inactive) in the test with RPMI-8226; > 100 µM (inactive) in the test on RXF 393; > 100 µM (inactive) in the test with SK-MEL-2; > 100 µM (inactive) in the test with SK-OV-3; 27.9 µM (inactive) with SN12C; > 100 µM (inactive) in the test with SNB-19. Moreover, the GI50 in the test on SNB-75 is > 100 µM (inactive); with U-251, > 95.9 µM (inactive).

Take `COc1ccc(C(=O)/C=C/c2cc(O)c(O)cc2F)c(OC)c1`: the GI50 in the test with HCT-116 was 6.97 µM (inactive); with HCT-15, 0.448 µM; in the test on HOP-62, 6.58 µM (inactive); in the test with HOP-92, 50.1 µM (inactive); in the test with K562, 1.16 µM (inactive); with LOX IMVI, 10.6 µM (inactive). Also, the GI50 in the test on M14 is 10.2 µM (inactive); in the test on MOLT-4, 3.71 µM (inactive); with Malme-3M, 7.71 µM (inactive); in the test with NCI-H460, 3.99 µM (inactive); with OVCAR-3 it was 0.327 µM (active); in the test with OVCAR-5, 15.3 µM (inactive). The GI50 in the test with RPMI-8226 is 3.34 µM (inactive); in the test with RXF 393, 9.68 µM (inactive); in the test with SK-MEL-2, 4.91 µM (inactive); in the test on SK-OV-3, 10.6 µM (inactive); in the test on SN12C, 3.94 µM (inactive); with SNB-19, 9.79 µM (inactive). For the same compound, the GI50 is 4.67 µM (inactive) in the test on SNB-75 and 5.45 µM (inactive) in the test with U-251.

For `CCOC(=O)C1(C(=O)OCC)C[C@H](C)[C@](C)(O)C1`, the GI50 was > 100 µM (inactive) in the test on HCT-116; more than 100 µM in the test with HCT-15; > 100 µM (inactive) in the test with HOP-62; > 100 µM (inactive) in the test with HOP-92; > 100 µM (inactive) in the test with K562; > 100 µM (inactive) in the test on LOX IMVI. Also, the GI50 with M14, with MOLT-4, in the test on Malme-3M, in the test with NCI-H460, in the test with OVCAR-3 and with OVCAR-5 was > 100 µM (inactive) each time. The GI50 in the test on RPMI-8226, in the test with RXF 393, with SK-MEL-2, with SK-OV-3, in the test on SN12C and in the test with SNB-19 was > 100 µM (inactive) in each case. The GI50 in the test on SNB-75 and with U-251 was > 100 µM (inactive) each time.

Consider `CCCCCCCCCCCCCC(=O)CC(=O)c1c(O)cccc1O`, for which the GI50 in the test with HCT-116 was 43.6 µM (inactive); in the test with HCT-15, 25.2 µM; in the test on HOP-62, 34.4 µM (inactive); with HOP-92, 22.4 µM (inactive); with K562, 21 µM (inactive); in the test with LOX IMVI it was 19.6 µM (inactive). Further, the GI50 in the test on M14 was 44.7 µM (inactive); in the test on MOLT-4, 21.5 µM (inactive); in the test with Malme-3M, 28.8 µM (inactive); in the test on NCI-H460 it was 36.1 µM (inactive); with OVCAR-3, 18.9 µM (inactive); in the test on OVCAR-5 it was 46.6 µM (inactive). In addition, the GI50 in the test with RPMI-8226 was 25.5 µM (inactive); in the test on RXF 393, > 100 µM (inactive); in the test with SK-MEL-2, 19.2 µM (inactive); in the test on SK-OV-3 it was 38.6 µM (inactive); in the test on SN12C, 33.6 µM (inactive); in the test on SNB-19, 36.4 µM (inactive). Also, the GI50 in the test with SNB-75 was 39.5 µM (inactive); in the test with U-251, 35.6 µM (inactive).

For the compound `O=c1c(Cl)nsnc1Cl`, the GI50 is 7.01 µM (inactive) in the test with HCT-116; 17.5 µM in the test on HCT-15; 18.7 µM (inactive) in the test with HOP-62; 0.665 µM (active) in the test with HOP-92; 1.73 µM (inactive) in the test on K562; 9.23 µM (inactive) in the test on LOX IMVI. Besides, the GI50 with M14 is 5.01 µM (inactive); with MOLT-4, 1.9 µM (inactive); with Malme-3M, 6.38 µM (inactive); in the test on NCI-H460 it was 29.3 µM (inactive); in the test with OVCAR-3, 5.69 µM (inactive); in the test with OVCAR-5, 20.1 µM (inactive). The GI50 in the test on RPMI-8226 was 1.54 µM (inactive); with RXF 393, 12.1 µM (inactive); in the test on SK-MEL-2, 36.4 µM (inactive); in the test on SK-OV-3, 19.1 µM (inactive); in the test on SN12C it was 20.2 µM (inactive); in the test with SNB-19, 23.4 µM (inactive). Also, the GI50 in the test with SNB-75 is 22.6 µM (inactive); in the test on U-251, 15.1 µM (inactive).

Take `CC(=O)OCC(OC(C)=O)C1C[C@H]2O[C@@H]3[C@H](C[C@H]2O1)O[C@@]1(C[C@@H]3C)C[C@H](C)[C@@H]2O[C@]3(C[C@@H]2O1)C[C@H]1O[C@H]2[C@H](C)[C@H]4OC(=O)CC5CC[C@H]6OC7[C@H]8O[C@]9(CC[C@H]%10CC(O)(CO)[C@H](CC[C@H]%11C[C@@H](C)C(O)(CO)C(C[C@@H]4O[C@H]2C[C@H]1O3)O%11)O%10)CC8O[C@@H]7[C@@H](O9)[C@H]6O5` (stereo not given in full): the GI50 is 0.00438 µM (active) in the test on HCT-116; 0.00486 µM in the test on HCT-15; 0.0622 µM (active) in the test on HOP-62; 0.0504 µM (active) in the test on HOP-92; 0.00116 µM (active) in the test with K562; 0.0146 µM (active) in the test with LOX IMVI. Further, the GI50 in the test on M14 was 0.00935 µM (active); in the test on MOLT-4 it was 0.0064 µM (active); with Malme-3M, 0.00297 µM (active); in the test on NCI-H460, 0.00371 µM (active); with OVCAR-3, 0.00655 µM (active); in the test with OVCAR-5 it was > 0.27 µM (active). For the same compound, the GI50 was 0.00282 µM (active) with RPMI-8226; 0.00253 µM (active) in the test on RXF 393; 0.116 µM (active) in the test on SK-MEL-2; 0.0284 µM (active) in the test with SK-OV-3; 0.0227 µM (active) in the test with SN12C; 0.0194 µM (active) with SNB-19. The GI50 in the test on SNB-75 was 0.00308 µM (active); in the test with U-251, 0.00618 µM (active).
